# Test results from US20090042869A1, “SIGNAL-DEPENDENT SPLICING OF TISSUE FACTOR PRE-mRNA IN [sequence] CELLS” (UNIVERSITY OF UTAH RESEARCH FOUNDATION, priority 2007, published 2009).
# Columns and labels:
# activated platelets = assay: TF-dependent procoagulant activity (Actichrome TF assay); assay type: cell-based, human; settings: stimulated platelets (fibrinogen + thrombin)
# Text: (§1) CD34+ stem cells were isolated from human umbilical cord blood and were differentiated into megakaryocytes that produce proplatelets using methods that we have previously described^18. Leukocyte-depleted human platelets were isolated from healthy volunteers using previously described methods^18,29. For all of the platelet studies, residual leukocytes were removed from the washed preparations by CD45+ bead selection as previously described^1. […] Platelets were resuspended in M199 serum-free culture medium^1,2. Platelets were left quiescent or allowed to adhere to immobilized human fibrinogen (Calbiochem) in the presence of thrombin (0.05 U/ml; Sigma-Aldrich). Select studies were also conducted with suspended platelets that were activated with ADP, collagen, or thrombin. […] For translational inhibition, platelets were isolated and preincubated for 2 h in the presence of vehicle (water) or puromycin as previously described^2.
# TF-dependent procoagulant activity was calculated with an Actichrome TF assay (American Diagnostica) as previously described^13. […] Intact cellular membranes and microparticles were immediately placed in 25 μl of kit assay buffer and TF-dependent procoagulant activity was calculated. […]
# mClk3 = mClk3 (Mus musculus, UniProt O35492); settings: cited from earlier work
# Chain of mClk3 (O35492 whole entry): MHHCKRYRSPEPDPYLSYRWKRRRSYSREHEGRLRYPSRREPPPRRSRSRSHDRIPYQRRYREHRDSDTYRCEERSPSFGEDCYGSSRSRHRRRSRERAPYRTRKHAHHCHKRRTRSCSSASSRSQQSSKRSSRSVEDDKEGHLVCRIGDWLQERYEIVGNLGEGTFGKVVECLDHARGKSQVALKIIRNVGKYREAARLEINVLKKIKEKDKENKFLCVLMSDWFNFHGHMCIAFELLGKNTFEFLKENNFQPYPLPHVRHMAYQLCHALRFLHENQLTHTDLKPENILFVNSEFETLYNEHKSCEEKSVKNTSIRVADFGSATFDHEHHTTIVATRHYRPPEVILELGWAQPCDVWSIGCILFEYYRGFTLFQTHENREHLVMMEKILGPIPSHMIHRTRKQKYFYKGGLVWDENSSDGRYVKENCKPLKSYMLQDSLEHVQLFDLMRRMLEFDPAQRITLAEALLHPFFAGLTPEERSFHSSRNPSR
# TF pre-mRNA [1] = assay: TF pre-mRNA splicing in activated platelets (PCR); assay type: cell-based, human; settings: platelets adherent to fibrinogen, coactivated with thrombin 2 h
# Text: as §1, with “described^2. For most of the TF pre-mRNA studies, primers that targeted sequences in exon four ([NT] ID NO: 1) and five ([NT] ID NO: 2), and thus spanned intron four, were used to determine endogenous splicing of TF pre-mRNA in platelets. Indirect in situ hybridization or direct in situ PCR was used to detect TF pre-mRNA in megakaryocytes and platelets as previously described^18. Primers that detected alternatively spliced human […] used as previously described^3. […]” for “described^2.”
# Clk1 = Clk1 (Homo sapiens, UniProt P49759); assay: Immune complex kinase assay for Clk1 activity in platelets (SF2/ASF substrate); assay type: cell-based; settings: stimulated platelets (fibrinogen + thrombin), pretreated; vs vehicle
# Chain of Clk1 (P49759 whole entry): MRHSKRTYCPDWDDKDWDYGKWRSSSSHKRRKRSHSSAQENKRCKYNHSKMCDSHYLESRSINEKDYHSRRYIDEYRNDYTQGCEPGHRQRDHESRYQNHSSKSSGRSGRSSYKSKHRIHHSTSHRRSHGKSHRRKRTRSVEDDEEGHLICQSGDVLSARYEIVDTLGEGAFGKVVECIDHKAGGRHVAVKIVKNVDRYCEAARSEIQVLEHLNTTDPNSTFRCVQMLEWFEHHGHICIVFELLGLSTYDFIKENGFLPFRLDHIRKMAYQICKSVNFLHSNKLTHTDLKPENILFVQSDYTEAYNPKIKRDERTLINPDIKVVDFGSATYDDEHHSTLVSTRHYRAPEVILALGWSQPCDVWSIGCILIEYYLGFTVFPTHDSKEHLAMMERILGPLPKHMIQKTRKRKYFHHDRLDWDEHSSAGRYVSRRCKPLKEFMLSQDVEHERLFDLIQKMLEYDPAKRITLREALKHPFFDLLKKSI
# Description: Leukocyte-depleted human platelets were isolated from healthy volunteers using previously described methods^18,29. For all of the platelet studies, residual leukocytes were removed from the washed preparations by CD45+ bead selection as previously described^1. […] Platelets were resuspended in M199 serum-free culture medium^1,2. Platelets were left quiescent or allowed to adhere to immobilized human fibrinogen (Calbiochem) in the presence of thrombin (0.05 U/ml; Sigma-Aldrich). […] For translational inhibition, platelets were isolated and preincubated for 2 h in the presence of vehicle (water) or puromycin as previously described^2.
# Immune complex kinase assay for Clk1 activity. Clk1 activity in platelets was determined using an immune complex kinase assay. […] Kinase assays were performed by addition of recombinant SF2/ASF (Protein One) in the presence of γ-[^32P]ATP (MP Biomedicals). At the end of this incubation period, the agarose beads and immune complexes were removed by centrifugation, and the unbound sample, which contained SF2/ASF, was resolved by SDS-PAGE.
# platelets = assay: Other platelet functional responses (immunocytochemistry); assay type: cell-based, human; settings: fibrinogen + thrombin, 1 h
# Description: After 1 h, the cells were prepared for immunocytochemical detection (red staining) of Clk1 (top) or β-tubulin (bottom). The green stain in each panel identifies polymerized actin.
# Detailed strategies for protein detection by flow cytometry, Western blot analysis, and immunocytochemistry have been previously published^18,29. A polyclonal antibody against human TF (pAb CL 20150A; Affinity Biologicals) was used under nonreducing conditions to detect TF protein by Western analysis. Antibodies directed against TF (mAb 550252; BD Biosciences), Clk family members (Abgent), or β-tubulin (Sigma-Aldrich) were used for immunocytochemical studies. For the in situ experiments, polymerized actin was detected with Alexa fluor 488 phalloidin (Molecular Probes). Specificity was confirmed by parallel studies with nonimmune IgG or deletion of the primary antibody. Detailed strategies for protein detection by Western analysis and immunocytochemistry have been previously published^1,2. Flow cytometric analysis of surface-expressed CD14, CD45, and CD162 (PSGL-1) was performed on washed platelet preparations before and after CD45 depletion, on CD45 positively selected cells, and on purified monocytes (FIG. 1).
# SRPK1 = SRPK1 (Homo sapiens, UniProt Q96SB4); settings: at concentrations up to 1 μM; cited from earlier work
# Chain of SRPK1 (Q96SB4 whole entry, species assumed): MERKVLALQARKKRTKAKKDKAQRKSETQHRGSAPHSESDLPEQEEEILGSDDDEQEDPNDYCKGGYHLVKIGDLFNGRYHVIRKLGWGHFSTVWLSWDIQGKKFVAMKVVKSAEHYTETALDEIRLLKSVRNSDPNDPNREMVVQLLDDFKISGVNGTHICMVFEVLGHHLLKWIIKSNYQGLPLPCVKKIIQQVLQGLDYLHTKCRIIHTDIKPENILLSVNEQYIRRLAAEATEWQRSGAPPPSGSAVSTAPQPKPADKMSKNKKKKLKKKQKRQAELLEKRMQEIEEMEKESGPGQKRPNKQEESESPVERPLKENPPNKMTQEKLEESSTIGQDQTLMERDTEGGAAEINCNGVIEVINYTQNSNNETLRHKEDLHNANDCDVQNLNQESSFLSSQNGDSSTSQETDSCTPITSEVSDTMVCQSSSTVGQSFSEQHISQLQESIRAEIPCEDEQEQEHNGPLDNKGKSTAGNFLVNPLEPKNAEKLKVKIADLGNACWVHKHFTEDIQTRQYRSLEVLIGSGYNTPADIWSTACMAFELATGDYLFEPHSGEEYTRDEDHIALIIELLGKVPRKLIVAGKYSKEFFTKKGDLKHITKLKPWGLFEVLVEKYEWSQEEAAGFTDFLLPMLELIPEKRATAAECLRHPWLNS
# PKA = settings: at concentrations up to 1 μM; cited from earlier work
# SRPK2 = SRPK2 (Homo sapiens, UniProt P78362); settings: at concentrations up to 1 μM; cited from earlier work
# Chain of SRPK2 (P78362 whole entry, species assumed): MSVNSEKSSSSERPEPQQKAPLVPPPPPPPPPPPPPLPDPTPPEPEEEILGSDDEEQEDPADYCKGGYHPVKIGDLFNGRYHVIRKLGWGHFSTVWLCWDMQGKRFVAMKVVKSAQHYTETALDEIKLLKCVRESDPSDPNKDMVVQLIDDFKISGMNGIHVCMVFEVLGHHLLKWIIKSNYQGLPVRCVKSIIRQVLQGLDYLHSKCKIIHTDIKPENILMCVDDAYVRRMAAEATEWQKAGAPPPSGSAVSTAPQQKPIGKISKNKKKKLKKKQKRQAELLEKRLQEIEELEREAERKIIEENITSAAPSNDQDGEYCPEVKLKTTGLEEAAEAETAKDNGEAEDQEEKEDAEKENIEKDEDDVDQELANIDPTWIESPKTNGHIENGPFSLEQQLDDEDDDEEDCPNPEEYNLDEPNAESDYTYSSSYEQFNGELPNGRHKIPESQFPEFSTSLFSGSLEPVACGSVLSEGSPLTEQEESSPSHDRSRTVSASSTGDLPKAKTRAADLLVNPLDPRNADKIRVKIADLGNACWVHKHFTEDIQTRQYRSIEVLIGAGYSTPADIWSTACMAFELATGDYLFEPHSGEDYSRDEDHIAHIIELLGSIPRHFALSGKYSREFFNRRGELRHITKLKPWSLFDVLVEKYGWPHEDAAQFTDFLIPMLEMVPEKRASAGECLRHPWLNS
# PKC = settings: at concentrations up to 1 μM; cited from earlier work
# TF protein = TF protein expression in platelets and platelet-derived microparticles (Western blot); assay type: cell-based, human; settings: activated platelets, 30 min or 4 h
# Text: as §1
# Detailed strategies for protein detection by flow cytometry, Western blot analysis, and immunocytochemistry have been previously published^18,29. A polyclonal antibody against human TF (pAb CL 20150A; Affinity Biologicals) was used under nonreducing conditions to detect TF protein by Western analysis. […] For the in situ experiments, polymerized actin was detected with Alexa fluor 488 phalloidin (Molecular Probes). […]
# human plasma = assay: Plasma clot formation with membranes from activated platelets; assay type: cell-based; settings: membranes of platelets activated 5 min or 2 h
# Description: FIG. 5F illustrates clot formation in plasma that is incubated with membranes isolated from quiescent platelets or platelets activated with fibrinogen and thrombin for 5 min (left) or 2 h (right). The white bars represent activated platelets that were incubated with a neutralizing antibody directed against tissue factor (Anti-TF). The data in FIGS. 5D, 5E, an 5F represent the mean±SEM of six independent experiments.
# FIG. 8B is a western blot analysis showing TF protein expression in platelets and platelet-derived microparticles. […] Recombinant TF was used as a positive control. FIG. 8C depicts TF-dependent procoagulant activity in freshly isolated platelets or platelets activated, as in FIG. 2B, in the presence or absence of the Clk inhibitor. […] A single asterisk (*) indicates a statistically significant difference (P<0.05) in TF-dependent procoagulant activity between freshly isolated (baseline) and activated platelets; the double asterisk (**) represents a significant difference (P<0.05) between activated platelets under untreated or treated conditions. […] The activated platelets were pretreated with either the Clk inhibitor (Clk Inh) or DMSO. The data represent the mean±SEM of five independent experiments. […]
# Therefore, the affect of platelet-derived TF on plasma clotting times was determined. […]
# TF pre-mRNA [2] = assay: TF pre-mRNA splicing in platelets of subjects receiving medication; assay type: in vivo, human; settings: for signal-dependent TF pre-mRNA splicing: in the elderly; for impact on TF pre-mRNA splicing: subjects receiving the drug
# IL-1β pre-mRNA = IL-1β pre-mRNA splicing in platelets of subjects receiving medication; assay type: in vivo, human; settings: in young subjects
compound,measurement,setting,value
COc1ccc(C[C@H](N)C(=O)N[C@H]2[C@@H](O)[C@H](n3cnc4c(N(C)C)ncnc43)O[C@@H]2CO)cc1 [Puromycin],TF-dependent procoagulant activity,activated platelets,significantly (P<0.05) reduced
"CCN1/C(=C/C(C)=O)Sc2ccc(OC)cc21 [Tg003, (Z)-1-(3-Ethyl-5-methoxy-2,3-dihydrobenzothiazol-2-ylidene)propan-2-one]",IC50,mClk3,> 10 µM
same,processing of TF pre-mRNA,TF pre-mRNA [1],prevented
same,Clk1-dependent SF2/ASF phosphorylation,Clk1,suppressed
same,"other platelet functional responses (adherence and spreading, actin polymerization, tubulin organization, Clk1 redistribution)",platelets,no effect
same,effect on activity of SRPK1,SRPK1,does not affect
same,TF-dependent procoagulant activity,activated platelets,significantly (P<0.05) reduced
same,effect on activity of PKA,PKA,does not affect
same,effect on activity of SRPK2,SRPK2,does not affect
same,effect on activity of PKC,PKC,does not affect
same,expression of TF protein,TF protein,blocked
same,onset of plasma clot formation,human plasma,delayed
CC(=O)Oc1ccccc1C(=O)O [aspirin],signal-dependent TF pre-mRNA splicing,TF pre-mRNA [2],do not block
same,impact on TF pre-mRNA splicing,TF pre-mRNA [2],do not appear to have a significant impact
same,IL-1β pre-mRNA splicing,IL-1β pre-mRNA,do not block
heparin,signal-dependent TF pre-mRNA splicing,TF pre-mRNA [2],do not block
same,impact on TF pre-mRNA splicing,TF pre-mRNA [2],do not appear to have a significant impact
same,IL-1β pre-mRNA splicing,IL-1β pre-mRNA,do not block
